Publication PMC11213709, “De novo design of proteins housing excitonically coupled chlorophyll special pairs” (Nature Chemical Biology, 2024)

Legend:
Type in all cases: binding, synthetic construct
SP1 = target: T1, SP1; assay: X-ray crystal structure at […] Å; absorption titration (Kd1 […], Kd2 […]); fluorescence titration ([…])
T1 construct: de novo designed C2-symmetric homodimer, two ZnPPaM per dimer

SP3 = target: T2, SP3; assay: CD titration (Kd1 […], Kd2 […]); absorption titration (Kd1 […], Kd2 […]); fluorescence titration ([…])
T2 construct: de novo designed C2-symmetric homodimer, two ZnPPaM per dimer

SP2 = target: T3, SP2; assay: X-ray crystal structure at […] Å; CD titration (Kd1 […], Kd2 […]); absorption titration (Kd1 […], Kd2 […]); fluorescence titration ([…])
T3 construct: de novo designed C2-symmetric homodimer, two ZnPPaM per dimer

## C=Cc1c(C)c2[n]3c1=CC1=NC(=Cc4c(C)c5c([n]4[Zn]3)C(=C3N=C(C=2)[C@@H](C)[C@@H]3CCC(=O)OC)[C@@H](C(=O)OC)C5=O)C(CC)=C1C [ZnPPaM]
SP1
  Kd: 290 nM
SP3
  Kd: 800 nM
SP2
  Kd: 300 nM
